Data reported in patent publication US6884810B2, “Benzimidazole derivatives” (Zeria Pharmaceutical Co., Ltd., priority 2001, dated 2005).
pIC50: −log10 of the molar value.

Key:
H+/K+-ATPase = target: T1, H+/K+-ATPase (Sus scrofa, UniProt P19156); test: Proton pump inhibitory action: activity of inhibiting H+/K+-ATPase (at pH 1); assay type: biochemical; conditions: pig gastric mucosa enzyme sample; test compounds pretreated in hydrochloric acid solution pH 1 (50% DMSO) for 15 minutes; read-out: Proton pump inhibitory action [IC50 (μmol/L)]
T1 construct: The mucous membrane layer was homogenized in Tris-HCl buffer; from tissue; host or cells: pig stomach body, mucous membrane layer, membrane fraction from a sucrose interface
Description: (Proton Pump Inhibitory Action)
(1) Preparation of Enzyme Sample (H^+/K^+-ATPase)
The stomach body removed from a pig, which had been stored in a frozen state, was separated into a muscle layer and a mucous membrane layer. The mucous membrane layer was homogenized in Tris-HCl buffer (20 mmol/L, pH 7.4) having a volume 5 times that of the layer and containing sucrose (0.25 mol/L) and EGTA (1 mmol/L) (hereinafter the mixture is referred to as Tris-HCl buffer) in a mixer. The homogenate was subjected to centrifugation (9,000×g, 30 minutes). The supernatant was softly placed on 8 mL Tris-HCl buffer (20 mmol/L, pH 7.4) containing 30% sucrose and 1 mmol/L EGTA. The mixture was subjected to ultracentrifugation at 100,000×g for 60 minutes. The interface fraction obtained through centrifugation was subjected to centrifugation (113,000×g, 60 minutes) twice. Pellet was suspended in Tris-HCl buffer, and the suspension was homogenized at low speed. The resultant homogenate served as an enzyme sample of interest and was stored at −80° C. The protein content of the sample was quantitated through use of a BCA protein assay reagent in accordance with a method described by Smith et al. (Anal. Biochem., 150, 76-85 (1985)). All these steps were performed under cooling with an ice bath.
(2) Activity of inhibiting H^+/K^+-ATPase (at pH 1)
Activity of inhibiting H^+/K^+-ATPase was measured in accordance with a method described in Biochem. Biophys. Res. Commun., 40, 880-886 (1970). Specifically, ATP was employed as a substrate, and inorganic phosphate, which is a resultant degradation product, was quantitated. In consideration of the solubility of test compounds, the test compounds were preliminarily treated with a hydrochloric acid solution (containing 50% DMSO, 1×10^−1 mol/L, pH 1). Each of the test compounds having different concentrations was added to the hydrochloric acid solution to thereby yield a 1,000—fold dilution, and thereafter, the diluted compound was allowed to stand for 15 minutes at room temperature. After these preliminary remedies, a 10 μL solution that had undergone the above preliminary remedies were added to 840 μL Tris-acetate buffer (40 mmol/L, pH 7.5, containing 2 mmol/L MgCl2, may be referred to as TE buffer) containing or not containing 20 mmol/L KCl. Subsequently, a 100 μL enzyme solution (5 μg protein) diluted with the TE buffer was added. Incubation was performed for 30 minutes at 37° C. Thereafter, a 50 μL ATP solution (40 mmol/L) which was dissolved in TE buffer not containing KCl was added to initiate enzyme reaction (total volume: 1 mL, ATP final concentration: 2 mmol/L). Incubation was performed for 30 minutes at 37° C. Subsequently, ice-cold 12% trichloroacetic acid (2 mL) was added, to thereby stop the enzyme reaction. A molybdenum reagent (1 mL, 3.75% ammonium molybdate/1.5 mol/L sulfuric acid) and butyl acetate (5 mL) were added, followed by mixing under vigorous shaking for 5 minutes. The absorption of the butyl acetate layer was measured at 310 nm. A standard curve was determined on the basis of absorption obtained through the similar procedure by use of KH2PO4 at different concentrations dissolved in 8% TCA solution, and inorganic phosphate content was calculated. Samples to be measured were prepared in duplicate. The measurements were averaged, and residual activity was obtained from the difference between the inorganic phosphate content as determined in a sample containing KCl and that as determined in a sample not containing KCl. Percentage inhibition activity was calculated with respect to the activity obtained from a control sample (DMSO), which was considered 100%. As the inhibitory potency of each test compound, IC50 values were computed and shown. All the test compounds were dissolved in dimethyl sulfoxide immediately before use.

CYP2C19 = target: T2, CYP2C19 (Homo sapiens, UniProt P33261); test: Human CYP2C19 activity inhibition test (S-(+)-mephenytoin to 4'-hydroxymephenytoin); assay type: in vitro ADME; conditions: human, pH 7.4, probe S-(+)-mephenytoin (to 4'-hydroxymephenytoin), test compound 10 μM; human CYP2C19 yeast expression system microsome; 4'-hydroxymephenytoin generated vs control; read-out: CYP2C19 residual activity (%)
T2 construct: purchased Sumitomo Chemical Co., Ltd; host or cells: yeast (microsomes)
Method: (Human CYP2C19 Activity Inhibition Test)
CYP2C19 specifically participates in the metabolism reaction from S-(+)-mephenytoin to 4′-hydroxymephenytoin. Therefore, by use of an expression system CYP2C19, the production amount (concentration) of 4′-hydroxymephenytoin, serving as an index for CYP2C19 activity, was determined, whereby the inhibitory action of respective test substances was investigated.
(a) Metabolizing Activity Test
A solution of S-(+)-mephenytoin in methanol (125 μmol/L, 50 μL) and a solution of a test substance in methanol (25 μmol/L, 0, 10, 100, or 200 μL) were placed in a 10-mL glass test tube. The solvent was removed under a nitrogen gas at 40° C. A 75 μL mixture of 0.5M phosphate buffer (pH 7.4)-0.5 mM EDTA (20:10), 140 μL purified water, and 10 μL human CYP2C19 yeast expression system microsome (purchased from Sumitomo Chemical Co., Ltd.) were added.
Incubation was performed for 10 minutes at 37° C. Subsequently, aqueous 12% perchloric acid solution (50 μL) was added, to thereby stop the reaction.
After the reaction was stopped, an internal standard substance (I.S.) methyl p-hydroxybenzoate (100 μg/ mL, 50 μL), and diethyl ether (2 mL) were added. The mixture was shaken for 10 minutes, followed by centrifugation at 3,000 rpm for 10 minutes. The organic layer was separated, and the solvent was removed under a nitrogen gas at 40° C. The residue was dissolved in a 200 μL mobile phase, and the mixture was subjected to analysis by high performance liquid chromatography (HPLC).
In order to generate a calibration curve, the general procedure of the above process was repeated by use of 4′-hydroxymephenytoin solution instead of the S-(+)-mephenytoin solution. Quantitation was performed on the basis of the peak area ratio of 4′-hydroxymephenytoin to I.S. The amount of 4′-hydroxymephenytoin generated in the control sample was compared with that generated in the present of a test compound, and the results of comparison were used as an activity index.
HPLC was performed under the conditions described below (HPLC conditions A or HPLC conditions B).

T2 sequence (P33261 whole entry): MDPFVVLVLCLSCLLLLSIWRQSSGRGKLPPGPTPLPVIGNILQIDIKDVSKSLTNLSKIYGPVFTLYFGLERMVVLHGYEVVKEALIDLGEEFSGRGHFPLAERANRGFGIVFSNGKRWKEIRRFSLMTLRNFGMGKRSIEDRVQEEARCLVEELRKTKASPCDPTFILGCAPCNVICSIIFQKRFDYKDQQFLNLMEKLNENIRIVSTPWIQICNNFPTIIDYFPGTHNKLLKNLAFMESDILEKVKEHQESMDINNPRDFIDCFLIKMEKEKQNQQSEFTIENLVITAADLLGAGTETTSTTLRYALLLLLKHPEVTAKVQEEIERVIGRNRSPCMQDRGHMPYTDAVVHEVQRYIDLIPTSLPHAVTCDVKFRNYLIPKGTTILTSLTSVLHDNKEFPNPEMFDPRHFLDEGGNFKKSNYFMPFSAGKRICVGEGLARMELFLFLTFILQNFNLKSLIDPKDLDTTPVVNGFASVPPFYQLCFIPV
T1 sequence (P19156 2-1034 limits assumed): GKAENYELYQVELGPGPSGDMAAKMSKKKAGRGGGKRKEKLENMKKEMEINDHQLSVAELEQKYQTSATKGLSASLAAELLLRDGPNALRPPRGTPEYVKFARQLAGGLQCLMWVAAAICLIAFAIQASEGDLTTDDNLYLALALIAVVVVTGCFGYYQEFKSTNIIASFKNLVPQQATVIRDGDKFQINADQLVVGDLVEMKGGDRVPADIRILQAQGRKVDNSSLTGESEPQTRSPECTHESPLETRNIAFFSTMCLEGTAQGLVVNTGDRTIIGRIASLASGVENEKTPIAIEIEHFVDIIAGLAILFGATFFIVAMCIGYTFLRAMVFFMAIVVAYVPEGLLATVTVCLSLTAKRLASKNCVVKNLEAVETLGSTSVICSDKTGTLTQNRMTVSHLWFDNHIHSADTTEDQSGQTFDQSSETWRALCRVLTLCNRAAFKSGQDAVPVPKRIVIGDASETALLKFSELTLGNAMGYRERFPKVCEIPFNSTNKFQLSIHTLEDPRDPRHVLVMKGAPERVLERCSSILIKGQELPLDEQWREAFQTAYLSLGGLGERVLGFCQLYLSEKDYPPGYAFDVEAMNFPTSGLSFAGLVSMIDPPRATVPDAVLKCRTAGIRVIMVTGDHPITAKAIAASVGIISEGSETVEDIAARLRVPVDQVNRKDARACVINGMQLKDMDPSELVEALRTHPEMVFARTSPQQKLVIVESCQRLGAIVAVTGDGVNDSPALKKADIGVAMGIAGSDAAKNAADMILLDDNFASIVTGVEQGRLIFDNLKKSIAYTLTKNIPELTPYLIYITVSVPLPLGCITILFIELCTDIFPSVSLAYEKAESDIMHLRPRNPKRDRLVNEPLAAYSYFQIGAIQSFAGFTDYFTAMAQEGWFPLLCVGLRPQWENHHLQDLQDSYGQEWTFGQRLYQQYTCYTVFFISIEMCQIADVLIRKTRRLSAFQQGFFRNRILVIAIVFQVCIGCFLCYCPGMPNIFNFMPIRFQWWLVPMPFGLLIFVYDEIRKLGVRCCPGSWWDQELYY
T1 sequence (P18434 whole entry partner): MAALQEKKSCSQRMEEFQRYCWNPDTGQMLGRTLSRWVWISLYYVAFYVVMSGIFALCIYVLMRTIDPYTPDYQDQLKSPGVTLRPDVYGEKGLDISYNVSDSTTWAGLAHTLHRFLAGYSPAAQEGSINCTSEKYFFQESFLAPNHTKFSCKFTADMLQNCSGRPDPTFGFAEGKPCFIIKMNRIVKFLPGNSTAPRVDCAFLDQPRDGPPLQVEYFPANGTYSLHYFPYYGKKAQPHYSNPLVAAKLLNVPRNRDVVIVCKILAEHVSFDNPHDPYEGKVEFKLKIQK

pIC50 (H+/K+-ATPase) | activity at 10 min, 10 µM (CYP2C19) [%] | SMILES
5.39 | 98.3 | COc1c(OCCOCC(F)(F)F)ccnc1C[S+]([O-])c1nc2ccccc2[nH]1 (single isomer, unassigned; (+)) [Example 3(2), (+)-2-{3-methoxy-4-[2-(2,2,2-trifluoroethoxy)ethoxy]pyridin-2-yl-methylsulfinyl}-1H-benzimidazole]
5.47 | 66.5 | COc1c(OCCOCC(F)(F)F)ccnc1C[S+]([O-])c1nc2ccccc2[nH]1 (stereo not drawn) [Example 2(2), 2-{3-methoxy-4-[2-(2,2,2-trifluoroethoxy)ethoxy]pyridin-2-yl-methylsulfinyl}-1H-benzimidazole]
5.79 | 8.7 | Cc1c(OCC(F)(F)F)ccnc1C[S+]([O-])c1nc2ccccc2[nH]1 (stereo not drawn) [lansoprazole, reference compound]
6.00 | 18.4 | COc1ccc2[nH]c([S+]([O-])Cc3ncc(C)c(OC)c3C)nc2c1 (stereo not drawn) [omeprazole, reference compound]
5.79 | 39.8 | COCCCOc1ccnc(C[S+]([O-])c2nc3ccccc3[nH]2)c1C (stereo not drawn) [rabeprazole, reference compound]

The remaining lines, values behind:

SMILES | pIC50 (H+/K+-ATPase) | activity at 10 min, 10 µM (CYP2C19) [%]
COc1c(OCCCC(F)(F)F)ccnc1C[S+]([O-])c1nc2ccccc2[nH]1 (single isomer, unassigned; (-)) [Example 6(1), (−)-2-[3-methoxy-4-(4,4,4-trifluorobutoxy)pyridin-2-yl-methanesulfinyl]-1H-benzimidazole] | 5.60 | 66.4
[O-][S+](Cc1cc(OCCCC(F)(F)F)ccn1)c1nc2ccccc2[nH]1 (single isomer, unassigned; (-)) [Example 10(2), (−)-2-[4-(4,4,4-trifluorobutoxy)pyridin-2-yl-methanesulfinyl]-1H-benzimidazole] | 5.52 | 89.4
[O-][S+](Cc1cc(OCCOCC(F)(F)F)ccn1)c1nc2ccccc2[nH]1 (single isomer, unassigned; (-)) [Example 13(3), (−)-2-{4-[2-(2,2,2-trifluoroethoxy)ethoxy]pyridin-2-yl-methanesulfinyl}-1H-benzimidazole] | 5.13 | 98.6
COc1c(OCCCC(F)(F)F)ccnc1C[S+]([O-])c1nc2ccccc2[nH]1 (stereo not drawn) [Example 1(2), 2-[3-methoxy-4-(4,4,4-trifluorobutoxy)pyridin-2-yl-methylsulfinyl]-1H-benzimidazole] | 5.38 | 71.2
[O-][S+](Cc1cc(OCCCC(F)(F)F)ccn1)c1nc2ccccc2[nH]1 (stereo not drawn) [Example 9(3), 2-[4-(4,4,4-trifluorobutoxy)pyridin-2-yl-methanesulfinyl]-1H-benzimidazole] | 5.45 | 76.1
COc1ccc2nc([S@@+]([O-])Cc3ncc(C)c(OC)c3C)[nH]c2c1 [esomeprazole, reference compound] | 5.69 | 35.4
COc1ccnc(C[S+]([O-])c2nc3ccc(OC(F)F)cc3[nH]2)c1OC (stereo not drawn) [pantoprazole, reference compound] | 5.26 | 33.1
